Data as given in US9433624B2, “Methods and compositions for the treatment of metabolic disorders” (BIOMARIN PHARMACEUTICAL INC., priority 2003, dated 2016).
Read-outs that look alike come from different tables or passages of the source. Each block holds one molecule with its values, some of them ahead of it.

Legend:
[1] = room temperature; cited from earlier work
[2] = Schircks dihydrochloride salt, oral tablets; cited from earlier work
[3] = tested on: humans with elevated blood levels of phenylalanine (>600 μmol/L); assay: Multiple dose study (7-day loading test), 6R-BH4 daily for 7 days, blood Phe and tyrosine; assay type: in vivo
Excerpt: (§1) Criteria for inclusion in the study included (1) baseline blood Phe levels of >600 μmol/L, (2) age of at least 8 years. Criteria for exclusion from the study included (1) pregnancy or breastfeeding, (2) concurrent diseases or conditions that require medication or treatment, (3) concurrent treatment with any drug known to inhibit folate synthesis, and (4) treatment with any investigational drug within 30 days. Each of the patients also was identified as having a mutation in the phenylalanine hydroxylase (PAH) gene. Study subjects underwent baseline assessments, including medical history with assessment of phenylketonuria (PKU) or hyperphenylalaninemia (HPA) related signs and symptoms, physical examinations, vital signs, serum amino acid (i.e., phenylalanine, tyrosine, and tryptophan) blood levels, and routine laboratory tests (chemistry, hematology, and urinalysis) before inclusion in the study.
After the first stage of the study was completed, subjects entered the second stage of the study, during which they received 10 mg/kg of 6R-BH4 daily in an oral dosage form, for a total of 7 days. After a washout period of at least 7 days, each subject received 20 mg/kg of 6R-BH4 daily for a total of 7 days. During the second stage of the study, subjects were monitored before dosing, at 24 and 72 hours after first dose, and on the 7th day of dosing at each of the two dose levels. Monitoring included a safety assessment as described above, measurement of serum blood amino acid (i.e, phenylalanine, tyrosine, and tryptophan) levels and evaluation of phenylalanine and tyrosine oral intake. Subjects were instructed to continue their usual diet without any modification, and to record daily intake of food and beverages throughout the study.
Of those 14 patients, 10 (71%) responded favorably to 10 mg/kg/day. […] The individual blood Phe responses to multiple doses of 10 mg/kg BH4 are shown in 11 adults (FIG. 17) and 9 children (FIG. 19). The individual blood Phe responses to multiple doses of 20 mg/kg BH4 are shown in 11 adults (FIG. 18) and in 9 children (FIG. 20).

[4] = tested on: humans with elevated blood levels of phenylalanine (>600 μmol/L); assay: Open label single ascending oral dose study of 6R-BH4, blood Phe before and 24 hours after each dose; assay type: in vivo
Excerpt: as §1
Within a maximum of 4 weeks following the completion of baseline assessments, eligible subjects began the first stage of the study. Single ascending doses of 10 mg/kg, 20 mg/kg and 40 mg/kg of 6R-BH4 were administered orally, with a washout period of at least 7 days between each dose, and subjects were monitored 24 hours after each dose. Subjects underwent a safety assessment and blood amino acid (i.e, phenylalanine, tyrosine, and tryptophan) level measurements before and 24 hours after each 6R-BH4 dose. Blood pressure was measured 30 minutes and 1 hour after each dose. Safety assessments included physical examinations, vital signs, serial assessment of PKU or HPA related signs and symptoms, recording of adverse events, and monitoring of changes in laboratory parameters (chemistry, hematology, and urinalysis). Subjects were instructed to continue their usual diet without any modification, and to record daily intake of food and beverages throughout the study.

[5] = Storage stability of the polymorph form of BH4×2HCl, quality checked by HPLC; assay type: physicochemical; conditions: minigrip bag, 40° C., 75% relative humidity
Protocol: The polymorph forms of BH4 described in the Moser Applications are a very stable crystalline form of the drug. The polymorph form can be easily filtered off, dried and ground to particle sizes desired for pharmaceutical formulations. These outstanding properties renders this polymorph form especially feasible for pharmaceutical application. The stability of the polymorph form of BH4 was determined after the BH4×2HCl (the polymorph form) had been stored for 8 months in a minigrip bag at 40° C. and 75% relative humidity. Quality was checked in different intervals throughout the 8 month period by HPLC.

[6] = for hygroscopicity / water adsorbed (content): dihydrochloride; for water adsorbed (content): released on heating at 10° C./minute

SMILES: C[C@H](O)[C@H](O)[C@H]1CNc2nc(N)[nH]c(=O)c2N1 [6R-BH4, (6R)-5,6,7,8-tetrahydrobiopterin]
shelf-life [1]: < 8 h | half-life [2]: approximately 3.5 hours | responders to 20 mg/kg who also responded to the lower dose (30% or greater reduction in blood Phe) ([3]; 10 mg/kg/day, 10 of the 14 responders): 71% | patients with sustained decrease in blood Phe concentration (responsive = decline of 30%) ([3]; 20 mg/kg daily, 14/20 patients): 70 % of the patients | increase in blood tyrosine from baseline, some patients ([3]; 10 and 20 mg/kg daily, some but not all patients): > 80% | blood Phe decline from baseline ([4]; single oral dose 10 mg/kg): 10%±0.26% | blood Phe mean decline from baseline ([4]; single oral dose 20 mg/kg): 17%±0.28% | blood Phe mean decline from baseline ([4]; single oral dose 40 mg/kg): 27%±0.25%

HPLC [% area] ([5]; 0 months (at the beginning)): 98.4 % area | HPLC [% area] ([5]; after 1 month): 98.3 % area | HPLC [% area] ([5]; after 1 week): 99.4 % area | HPLC [% area] ([5]; after 3 months): 99.1 % area | HPLC [% area] ([5]; after 8 months): 98.1 % area
SMILES: C[C@H](O)[C@H](O)[C@H]1CNc2nc(N)[nH]c(=O)c2N1.Cl.Cl [BH4×2HCl, (6R)-L-erythro-tetrahydrobiopterin dihydrochloride]

hygroscopicity [6]: non-hygroscopic
SMILES: C[C@H](O)[C@H](O)[C@H]1CNc2nc(N)[nH]c(=O)c2N1.Cl.Cl [Form E, (6R)-L-erythro-tetrahydrobiopterin dihydrochloride]

hygroscopicity ([6]; hydrate form C): slightly hygroscopic
SMILES: C[C@H](O)[C@H](O)[C@H]1CNc2nc(N)[nH]c(=O)c2N1.Cl.Cl [Hydrate form C, (6R)-L-erythro-tetrahydrobiopterin dihydrochloride]

hygroscopicity [6]: slightly hygroscopic | water adsorbed (content) [6]: about 3 percent by weight | phase equilibration test of suspensions: form after filtration and air drying ([6]; tetrahydrofuran or tertiary-butyl methyl ether, five days and 18 hours respectively, under nitrogen, room temperature): unchanged polymorph form A
SMILES: C[C@H](O)[C@H](O)[C@H]1CNc2nc(N)[nH]c(=O)c2N1.Cl.Cl [Polymorph A, (6R)-L-erythro-tetrahydrobiopterin dihydrochloride]

hygroscopicity [6]: slightly hygroscopic
SMILES: C[C@H](O)[C@H](O)[C@H]1CNc2nc(N)[nH]c(=O)c2N1.Cl.Cl [Polymorph B, (6R)-L-erythro-tetrahydrobiopterin dihydrochloride]

hygroscopicity [6]: slightly hygroscopic | water adsorbed (content) [6]: about 3 percent by weight
SMILES: C[C@H](O)[C@H](O)[C@H]1CNc2nc(N)[nH]c(=O)c2N1.Cl.Cl [Polymorph F, (6R)-L-erythro-tetrahydrobiopterin dihydrochloride]

hygroscopicity [6]: slightly hygroscopic | water adsorbed (content) [6]: about 2.0 percent by weight
SMILES: C[C@H](O)[C@H](O)[C@H]1CNc2nc(N)[nH]c(=O)c2N1.Cl.Cl [Polymorph K, (6R)-L-erythro-tetrahydrobiopterin dihydrochloride]

hygroscopicity ([6]; hydrate form D): slightly hygroscopic
SMILES: C[C@H](O)[C@H](O)[C@H]1CNc2nc(N)[nH]c(=O)c2N1.Cl.Cl [hydrate D, (6R)-L-erythro-tetrahydrobiopterin dihydrochloride]

hygroscopicity [6]: slightly hygroscopic
SMILES: C[C@H](O)[C@H](O)[C@H]1CNc2nc(N)[nH]c(=O)c2N1.Cl.Cl [polymorph J, (6R)-L-erythro-tetrahydrobiopterin dihydrochloride]
